Experimental data taken from ChEMBL document CHEMBL1147922, “Tetrahydroindazole inhibitors of bacterial type II topoisomerases. Part 2: SAR development and potency against multidrug-resistant strains” (Bioorg Med Chem Lett, 2007).
Converted amounts (≈) assume the structure as drawn.

Experiments:
Streptococcus pneumoniae = assay: Antibacterial activity against Streptococcus pneumoniae ATCC 49619; type: functional
[1] = Inhibition of bacterial DNA topoisomerase 4
Staphylococcus aureus [2] = assay: Antibacterial activity against quinolone susceptible methicillin resistant Staphylococcus aureus OC2878; type: functional
Staphylococcus aureus [3] = assay: Antibacterial activity against ciprofloxacin resistant methicillin resistant Staphylococcus aureus OC4159; type: functional
Escherichia coli = assay: Antibacterial activity against Escherichia coli KL16; type: functional
Staphylococcus aureus [4] = assay: Antibacterial activity against ciprofloxacin resistant methicillin resistant Staphylococcus aureus OC5273; type: functional
Staphylococcus aureus [5] = assay: Antibacterial activity against ciprofloxacin resistant methicillin resistant Staphylococcus aureus OC4222; type: functional
Staphylococcus aureus [6] = assay: Antibacterial activity against ciprofloxacin resistant methicillin resistant Staphylococcus aureus OC3946; type: functional
[7] = Inhibition of bacterial DNA gyrase
Staphylococcus aureus [8] = assay: Antibacterial activity against Staphylococcus aureus ATCC 13709; type: functional

Row | SMILES | MIC (Streptococcus pneumoniae) [µg/mL] | IC50 [1] [µg/mL] | MIC (Staphylococcus aureus [2]) [µg/mL] | MIC (Staphylococcus aureus [3]) [µg/mL] | MIC (Escherichia coli) [µg/mL] | MIC (Staphylococcus aureus [4]) [µg/mL] | MIC (Staphylococcus aureus [5]) [µg/mL] | MIC (Staphylococcus aureus [6]) [µg/mL] | IC50 [7] [µg/mL] | MIC (Staphylococcus aureus [8]) [µg/mL]
1 | COc1ccc2nccc(-n3cc4c(n3)CCC(NCc3ccc5c(c3)NC(=O)CS5)C4)c2c1 (centres undefined) | 2 (≈ 4.24 µM) | 0.16 (≈ 0.339 µM) | 0.5 (≈ 1.06 µM) | 0.25 (≈ 0.53 µM) | 2 (≈ 4.24 µM) | 0.5 (≈ 1.06 µM) | 0.25 (≈ 0.53 µM) | 0.25 (≈ 0.53 µM) | 0.06 (≈ 0.127 µM) | 0.5 (≈ 1.06 µM)
2 | COc1ccc2nccc(-n3cc4c(n3)CCC(NCc3ccc5c(c3)NC(=O)CS5)C4)c2n1 (centres undefined) | 1 (≈ 2.12 µM) | 0.03 (≈ 0.0635 µM) | 0.5 (≈ 1.06 µM) | 0.25 (≈ 0.529 µM) | 1 (≈ 2.12 µM) | 0.5 (≈ 1.06 µM) | 0.125 (≈ 0.265 µM) | 0.125 (≈ 0.265 µM) | 0.125 (≈ 0.265 µM) | 0.25 (≈ 0.529 µM)
3 | O=C1CSc2ccc(C(=O)NC3CCc4nn(-c5cccc6ccccc56)cc4C3)cc2N1 (centres undefined) | 8 (≈ 17.6 µM) | 0.125 (≈ 0.275 µM) |  |  | > 128 |  |  |  | 2 (≈ 4.4 µM) | 0.5 (≈ 1.1 µM)
4 | O=C1CSc2ccc(C(=O)NC3CCc4nn(-c5ccnc6cc(Cl)ccc56)cc4C3)cc2N1 (centres undefined) | > 128 | > 0.5 |  |  | > 128 |  |  |  | 16 (≈ 32.7 µM) | 2 (≈ 4.08 µM)
5 | Cc1cc(-n2cc3c(n2)CCC(NC(=O)c2ccc4c(c2)NC(=O)CS4)C3)c2cc(F)ccc2n1 (centres undefined) | > 128 | 0.5 (≈ 1.03 µM) |  |  | > 128 |  |  |  | 4 (≈ 8.2 µM) | 8 (≈ 16.4 µM)
6 | COc1ccc2nccc(-n3cc4c(n3)CCC(NC(=O)c3ccc5c(c3)OCCO5)C4)c2n1 (centres undefined) | 8 (≈ 17.5 µM) | > 1 |  |  | > 128 |  |  |  | > 32 | 0.5 (≈ 1.09 µM)
7 | COc1ccc2nccc(-n3cc4c(n3)CCC(NC(=O)c3ccc5c(c3)OCCO5)C4)c2c1 (centres undefined) | 8 (≈ 17.5 µM) |  |  |  | > 128 |  |  |  | 4 (≈ 8.76 µM) | 2 (≈ 4.38 µM)
8 | COc1ccc2nccc(-n3cc4c(n3)CCC(NCc3ccc5c(c3)OCCO5)C4)c2n1 (centres undefined) | 0.5 (≈ 1.13 µM) | 0.25 (≈ 0.564 µM) |  |  | 32 (≈ 72.2 µM) |  |  |  | 1 (≈ 2.25 µM) | 0.03 (≈ 0.0676 µM)
9 | COc1ccc2nccc(-n3cc4c(n3)CCC(NCc3ccc5c(c3)OCCCO5)C4)c2n1 (centres undefined) | 4 (≈ 8.74 µM) | 1 (≈ 2.19 µM) |  |  | > 128 |  |  |  | 4 (≈ 8.74 µM) | 1 (≈ 2.19 µM)
10 | COc1ccc2nccc(-n3cc4c(n3)CCC(NCc3ccc5c(c3)NCCS5)C4)c2n1 (centres undefined) | 0.25 (≈ 0.545 µM) | 0.03 (≈ 0.0654 µM) |  |  | 8 (≈ 17.4 µM) |  |  |  | 0.5 (≈ 1.09 µM) | < 0.125
11 | COc1ccc2nccc(-n3cc4c(n3)CCC(NCc3ccc5c(c3)NCCS5)C4)c2c1 (centres undefined) | 0.5 (≈ 1.09 µM) | 0.0625 (≈ 0.137 µM) |  |  | 8 (≈ 17.5 µM) |  |  |  | 0.5 (≈ 1.09 µM) | 0.5 (≈ 1.09 µM)
12 | COc1ccc2nccc(-n3cc4c(n3)CCC(NCc3ccc5c(n3)NC(=O)CO5)C4)c2c1 (centres undefined) | 2 (≈ 4.38 µM) | 0.016 (≈ 0.035 µM) |  |  | 2 (≈ 4.38 µM) |  |  |  | 0.06 (≈ 0.131 µM) | 1 (≈ 2.19 µM)
13 | COc1ccc2nccc(-n3cc4c(n3)CCC(NC(=O)c3ccc5c(c3)NC(=O)CO5)C4)c2n1 (centres undefined) | 8 (≈ 17 µM) | 0.25 (≈ 0.531 µM) |  |  | 4 (≈ 8.5 µM) |  |  |  | 1 (≈ 2.13 µM) | 0.125 (≈ 0.266 µM)
14 | COc1ccc2nccc(-n3cc4c(n3)CCC(NC(=O)c3cc5ccccc5[nH]3)C4)c2c1 (centres undefined) | 8 (≈ 18.3 µM) | 1 (≈ 2.29 µM) |  |  | > 128 |  |  |  | > 16 | 1 (≈ 2.29 µM)
15 | COc1ccc2nccc(-n3cc4c(n3)CCC(NC(=O)c3cc5c(cc3F)SCC(=O)N5)C4)c2n1 (centres undefined) | 2 (≈ 3.96 µM) | 0.125 (≈ 0.248 µM) | 0.031 (≈ 0.0614 µM) | 0.007 (≈ 0.0139 µM) | 128 (≈ 254 µM) | 0.031 (≈ 0.0614 µM) | 0.015 (≈ 0.0297 µM) | 0.007 (≈ 0.0139 µM) | 0.12 (≈ 0.238 µM) | 0.25 (≈ 0.495 µM)
16 | COc1ccc2nccc(-n3cc4c(n3)CCC(NC(=O)c3cc5c(cc3F)SCC(=O)N5)C4)c2c1 (centres undefined) | 1 (≈ 1.99 µM) | 0.25 (≈ 0.496 µM) | 0.062 (≈ 0.123 µM) | 0.031 (≈ 0.0616 µM) | 4 (≈ 7.94 µM) | 0.062 (≈ 0.123 µM) | 0.031 (≈ 0.0616 µM) | 0.015 (≈ 0.0298 µM) | 8 (≈ 15.9 µM) | 0.03 (≈ 0.0596 µM)
17 | COc1ccc2nccc(-n3cc4c(n3)CCC(NC(=O)c3c(F)cc5c(c3F)NC(=O)CS5)C4)c2c1 (centres undefined) | 1 (≈ 1.92 µM) |  |  |  | 8 (≈ 15.3 µM) |  |  |  | 1 (≈ 1.92 µM) | 0.125 (≈ 0.24 µM)
18 | COc1ccc2nccc(-n3cc4c(n3)CCC(NC(=O)c3cc5c(cc3Cl)SCC(=O)N5)C4)c2n1 (centres undefined) | 4 (≈ 7.68 µM) |  |  |  | 2 (≈ 3.84 µM) |  |  |  | 0.12 (≈ 0.23 µM) | < 0.125
19 | COc1ccc2nccc(-n3cc4c(n3)CCC(NC(=O)c3cc5c(cc3Cl)SCC(=O)N5)C4)c2c1 (centres undefined) | 2 (≈ 3.85 µM) |  |  |  | 2 (≈ 3.85 µM) |  |  |  | 0.5 (≈ 0.962 µM) | < 0.125
20 | COc1ccc2nccc(-n3cc4c(n3)CCC(NC(=O)c3cc5c(cc3Br)SCC(=O)N5)C4)c2n1 (centres undefined) | 2 (≈ 3.54 µM) | 0.25 (≈ 0.442 µM) |  |  | 2 (≈ 3.54 µM) |  |  |  | 0.25 (≈ 0.442 µM) | 0.125 (≈ 0.221 µM)
21 | COc1ccc2nccc(-n3cc4c(n3)CCC(NC(=O)c3cc5c(cc3C(F)(F)F)SCC(=O)N5)C4)c2c1 (centres undefined) | 8 (≈ 14.5 µM) | 0.25 (≈ 0.452 µM) |  |  | 8 (≈ 14.5 µM) |  |  |  | 1 (≈ 1.81 µM) | 0.125 (≈ 0.226 µM)
22 | COc1ccc2nccc(-n3cc4c(n3)CCC(NC(=O)c3cc5c(cc3OC)SCC(=O)N5)C4)c2n1 (centres undefined) | 16 (≈ 31 µM) |  |  |  | > 16 |  |  |  |  | 2 (≈ 3.87 µM)
